Like-named read-outs stand apart in the source and are kept apart here.
Legend:
[1] = tested on: mtOXPHOS transcripts; assay type: cell-based, mouse
[2] = tested on: reactive oxygen species; assay type: cell-based, mouse
[3] = tested on: nuOXPHOS transcripts; assay type: cell-based, mouse
[4] = tested on: cytochrome c; assay type: cell-based, mouse
[5] = tested on: OXPHOS gene expression; assay type: cell-based, mouse
[6] = tested on: cellular dehydrogenase activity
[7] = tested on: mitochondrial membrane potential; assay type: cell-based, mouse
[8] = tested on: C2C12 myotubes
[9] = 20 μM, composite Z-score vs DMSO
[10] = composite Z-score vs DMSO wells, Conc 20 μM
[11] = composite Z-score vs mock-treated (DMSO) wells, Conc 20 μM
[12] = composite Z-score vs DMSO, Conc 20 μM
[13] = normalized composite Z-score vs mock-treated (DMSO) wells, Conc 20 μM
[14] = composite Z-score vs DMSO, Conc 10.24 μM
[15] = 18.76 μM, composite Z-score vs DMSO
[16] = 13.16 μM, composite Z-score vs DMSO
[17] = Conc 20 μM, normalized score vs mock-treated (DMSO) wells

`CN(C(=O)CN(CCO)CC(=O)N(C)C(C)(C)Cc1ccccc1)C(C)(C)Cc1ccccc1` [oxethazaine] gave a mitoOX [1] of 0.609, a mitoOX [1, 9] of −0.486 and an ROS [2] of 1.092. It also gave an ROS [2, 9] of −0.055, a nucOX [3] of 0.335 and a nucOX [3, 9] of −0.812. The cyt c [4] was −0.550, the cyt c [4, 9] was −0.278 and the GE-HTS [5] was 0.473. It also gave a GE-HTS [5, 9] of −0.739, an MTT [6] of −1.374 and an MTT [6, 9] of −1.451. It also gave a ΔΨm [7] of −0.742, a ΔΨm [7, 9] of 0.173 and a Viability [8] of −0.497. It also gave a Viability [8, 9] of −0.294.

Work on `CCn1cc(C(=O)O)c(=O)c2cc3c(cc21)OCO3` [oxolinic acid] yielded a mitoOX [1, 10] of 0.171, an ROS [2, 10] of 0.681 and a nucOX [3, 10] of 0.211. For the same compound, the cyt c [4] was 0.227, the cyt c [4, 10] was 0.083 and the GE-HTS [5, 10] was 0.217. For the same compound, the MTT [6, 10] was −1.598, the ΔΨm [7, 10] was −0.640 and the Viability [8, 10] was −0.913.

`COC[C@]12CN(C=O)[C@@H]3[C@@H]4[C@H](OC)[C@H]1[C@@]3([C@@H](OC)C[C@H]2O)[C@@H]1C[C@@]2(O)[C@H](OC(=O)c3ccccc3)[C@@H]1[C@]4(OC(C)=O)[C@@H](O)[C@@H]2OC` [oxonitine] was tested, and the mitoOX [1, 11] was 0.147, the ROS [2, 11] was −0.167 and the nucOX [3, 11] was −0.938. It also gave a cyt c [4, 11] of 0.394, a GE-HTS [5, 11] of −0.636 and an MTT [6, 11] of −1.730. For the same compound, the ΔΨm [7, 11] was −1.019 and the Viability [8, 11] was −1.338.

`Oc1cccc2cccnc12` [oxyquinoline] gave a mitoOX [1] of 0.435, an ROS [2] of 0.684 and a nucOX [3] of 0.526. For the same compound, the cyt c [4] was −0.121, the GE-HTS [5] was 0.534 and the MTT [6] was −0.815. For the same compound, the ΔΨm [7] was −0.867 and the Viability [8] was −1.140.

In the case of `NNC(=O)c1ccncc1.Nc1ccc(C(=O)O)c(O)c1` [pasiniazid], the mitoOX [1, 12] is reported as −0.164, the ROS [2, 12] is reported as 0.502 and the nucOX [3, 12] is reported as −0.022. It also gave a cyt c [4, 12] of 0.590, a GE-HTS [5, 12] of −0.059 and an MTT [6, 12] of −0.807. For the same compound, the ΔΨm [7, 12] was −0.809 and the Viability [8, 12] was −0.883.

`COc1ccc(-c2cc(=O)c3c(O)c(OC)c(O[C@@H]4O[C@H](CO[C@@H]5O[C@@H](C)[C@H](O)[C@@H](O)[C@H]5O)[C@@H](O)[C@H](O)[C@H]4O)cc3o2)cc1` [pectolinarin] gave a mitoOX [1, 13] of −1.349, an ROS [2, 13] of 1.058 and a nucOX [3, 13] of −1.292. For the same compound, the cyt c [4, 13] was −0.739, the GE-HTS [5, 13] was −1.381 and the MTT [6, 13] was −0.475. The ΔΨm [7, 13] was −0.280 and the Viability [8, 13] was −0.100.

For `CC(=O)C[C@H]1CCCCN1` [pelletierine], the mitoOX [1, 13] was −0.077, the ROS [2, 13] was −0.071 and the nucOX [3, 13] was 0.077. The cyt c [4, 13] was 0.349, the GE-HTS [5, 13] was 0.036 and the MTT [6, 13] was −0.341. It also gave a ΔΨm [7, 13] of −0.120 and a Viability [8, 13] of −0.418.

For `CN1C(C)(C)CCCC1(C)C` [pempidine], the mitoOX [1] was −0.998, the mitoOX [1, 12] was −0.378 and the ROS [2] was 1.119. It also gave an ROS [2, 12] of 0.861, a nucOX [3] of −0.425 and a nucOX [3, 12] of −1.035. It also gave a cyt c [4] of 0.163, a cyt c [4, 12] of 0.146 and a GE-HTS [5] of −0.656. It also gave a GE-HTS [5, 12] of −0.874, an MTT [6] of −2.128 and an MTT [6, 12] of −1.419. It also gave a ΔΨm [7] of −0.967, a ΔΨm [7, 12] of −0.376 and a Viability [8] of −1.023. The Viability [8, 12] was −0.822.

Compound `CC1(C)S[C@@H]2[C@H](NC(=O)COc3ccccc3)C(=O)N2[C@H]1C(=O)O` [penicillin V] has a mitoOX [1, 9] of −0.654, an ROS [2, 9] of 0.748 and a nucOX [3, 9] of −0.844. The cyt c [4, 9] was 0.258, the GE-HTS [5, 9] was −0.849 and the MTT [6, 9] was −1.319. It also gave a ΔΨm [7, 9] of −0.564 and a Viability [8, 9] of 0.062.

`C[N+]1(CCCCC[N+]2(C)CCCC2)CCCC1` [pentolinium] gave a mitoOX [1, 14] of 0.444, a mitoOX [1, 12] of −1.080 and an ROS [2, 14] of 3.608. The ROS [2, 12] was 0.392, the nucOX [3, 14] was 0.489 and the nucOX [3, 12] was −0.840. It also gave a cyt c [4, 14] of 0.387, a cyt c [4, 12] of −0.703 and a GE-HTS [5, 14] of 0.521. For the same compound, the GE-HTS [5, 12] was −1.000, the MTT [6, 14] was 0.254 and the MTT [6, 12] was −0.771. The ΔΨm [7, 14] was −0.024, the ΔΨm [7, 12] was 0.209 and the Viability [8, 14] was 0.213. It also gave a Viability [8, 12] of −0.568.

Work on `CO[C@H]1[C@H](O)[C@H](O[C@H]2CC[C@@]3(C=O)[C@H](CC[C@@H]4[C@@H]3CC[C@]3(C)[C@@H](C5=CC(=O)OC5)CC[C@]43O)C2)O[C@@H](C)[C@@H]1O` [peruvoside] yielded a mitoOX [1, 10] of 0.324, an ROS [2, 10] of 0.997 and a nucOX [3, 10] of 0.297. For the same compound, the cyt c [4, 10] was 0.075, the GE-HTS [5, 10] was 0.328 and the MTT [6, 10] was −1.190. It also gave a ΔΨm [7, 10] of −0.906 and a Viability [8, 10] of 0.426.

Work on `CC(C)=CCc1c(O)cc2oc(C)cc(=O)c2c1O` [peucenin] yielded a mitoOX [1, 11] of 0.361, an ROS [2, 11] of −0.014 and a nucOX [3, 11] of 0.051. For the same compound, the cyt c [4, 11] was 0.494, the GE-HTS [5, 11] was 0.148 and the MTT [6, 11] was −1.695. For the same compound, the ΔΨm [7, 11] was −0.057 and the Viability [8, 11] was −0.906.

`CCOc1ccc(NC(C)=O)cc1` [phenacetin] gave a mitoOX [1, 10] of 0.564, an ROS [2, 10] of 1.491 and a nucOX [3, 10] of 0.833. For the same compound, the cyt c [4] was −0.611, the cyt c [4, 10] was 0.005 and the GE-HTS [5, 10] was 0.811. The MTT [6, 10] was 0.760, the ΔΨm [7, 10] was −0.255 and the Viability [8, 10] was 0.665.

`Nc1ccc(/N=N/c2ccccc2)c(N)n1` [phenazopyridine] gave a mitoOX [1, 15] of −0.930, a mitoOX [1, 9] of 0.544 and an ROS [2, 15] of 0.587. The ROS [2, 9] was 1.911, the nucOX [3, 15] was −0.323 and the nucOX [3, 9] was 0.207. The cyt c [4, 15] was 0.678, the cyt c [4, 9] was 0.335 and the GE-HTS [5, 15] was −0.561. It also gave a GE-HTS [5, 9] of 0.362, an MTT [6, 15] of −2.094 and an MTT [6, 9] of −0.692. It also gave a ΔΨm [7, 15] of 0.126, a ΔΨm [7, 9] of 1.263 and a Viability [8, 15] of −0.413. It also gave a Viability [8, 9] of 0.627.

Compound `CC(COc1ccccc1)N(CCCl)Cc1ccccc1` (stereo not shown) [phenoxybenzamine] has a mitoOX [1, 16] of 0.167, a mitoOX [1, 9] of −1.462 and an ROS [2, 16] of 0.444. The ROS [2, 9] was 0.256, the nucOX [3, 16] was −0.306 and the nucOX [3, 9] was −1.077. The cyt c [4, 16] was −0.470, the cyt c [4, 9] was −0.188 and the GE-HTS [5, 16] was −0.155. The GE-HTS [5, 9] was −1.302, the MTT [6, 16] was −0.159 and the MTT [6, 9] was −1.049. It also gave a ΔΨm [7, 16] of −0.422, a ΔΨm [7, 9] of 0.021 and a Viability [8, 16] of −0.751. It also gave a Viability [8, 9] of −0.906.

With `CNC[C@H](O)c1cccc(O)c1` [phenylephrine] the mitoOX [1] was 0.536, the ROS [2] was 0.474 and the nucOX [3] was 0.120. The cyt c [4] was −0.187, the GE-HTS [5] was 0.254 and the MTT [6] was 1.105. For the same compound, the ΔΨm [7] was −0.460 and the Viability [8] was −0.349.

`OC[C@H]1O[C@@H](Oc2cc(O)cc(/C=C/c3ccc(O)cc3)c2)[C@H](O)[C@@H](O)[C@@H]1O` [piceid] was tested, and the “mitoOX (composite Z-score)” value [1, 17] was 0.124, the “ROS (composite Z-score)” value [2, 17] was 0.862 and the “nucOX (composite Z-score)” value [3, 17] was 0.088. The “cyt c (composite Z-score)” value [4, 17] was 0.272, the “GE-HTS (composite Z-score)” value [5, 17] was 0.110 and the “MTT (composite Z-score)” value [6, 17] was −0.826. For the same compound, the “ΔΨm (composite Z-score)” value [7, 17] was 0.088 and the “Viability (composite Z-score)” value [8, 17] was −0.341.

— patent US20090143279A1 (priority 2007, published 2009)
